Results on three compounds are retold here after patent US6312704A, “Orally administrable composition capable of providing enhanced bioavailability when ingested” (Gattefosse, S.A., priority 1993, dated 2001).

A value given as a limit tells only on which side of the number the result lay.

Data set [1] is classed as physicochemical. The settings on record: gastric medium pH 1.2. An excerpt: The proportions by weight of the different constituents of this mixture are: […]
A short description of data set [2]: in vivo test on rats, plasma concentrations after oral administration of indomethacin. The settings on record: powder made into a suspension immediately before use. The procedure: In vivo tests were conducted on rats with indomethacin as active agent.
(§1) The proportions by weight of the different constituents of this mixture are:
An oral administration of indomethacin is first carried out according to the above composition.
A second series of tests consists in administering indomethacin orally in the form of powder made into a suspension immediately before use.

Data set [3] in a line: in vitro dissolution of indomethacin in a gastric medium at pH 1.2. It counts as physicochemical. The settings on record: gastric medium pH 1.2. The procedure:
In all the examples, the complement by weight to […] of the composition is, in actual fact, represented by an anti-inflammatory active principle, namely indomethacin in Examples 1 to 8, and 12, hydrocortisone in Example 9 and diclofenac sodium in Example 10. In examples 1-12, the hydrophilic phase is represented by water which is known to be a simulation of the digestive milieu for in vitro tests.
By way of comparison, when the pure active agent (indomethacin) is tested, at best only 5% of this active agent is dissolved in one hour; and still by way of comparison, with hard gelatin capsules of this active principle which are currently on the market, only 4.7% of active agent dissolved is obtained at the end of one hour.
In this example, the rates of dissolution in vitro in a gastric medium (at pH =1.2), in which indomethacin alone has a rate of dissolution of less than 5% in the same medium, are compared.
as §1
In this example, the same components are used as in the preceding example, with different proportions, namely: […]

Data set [4] in a line: in vitro rate of dissolution of hydrocortisone in a gastric medium (pH 1.2). In kind it is physicochemical. An excerpt: In this example, the rates of dissolution of hydrocortisone in a gastric medium (at pH 1.2) are compared.
The same lipophilic phase and the same SA/CoSA mixture are used as in Example 8, but in the following proportions: […]

In the case of `O=C(O)Cc1ccccc1Nc1c(Cl)cccc1Cl` [diclofenac sodium], the “rate of dissolution in 30 min” value in data set [1] (30 min) turned out to be 1%. In data set [1] (powder form), the “solubility in gastric medium (in words)” value was “almost insoluble”.

In the case of `COc1ccc2c(c1)c(CC(=O)O)c(C)n2C(=O)c1ccc(Cl)cc1` [indomethacin], the kinetics obtained entry in data set [2] is “irregular and vary from one animal to another”. In addition, the concentration at 1 h in data set [2] (rat, in vivo, one hour) lay in the range of 1000 to 5000 ng/mL. In data set [2] (rat, in vivo, two hours), this compound showed a concentration at 2 h of 1000 to 4000 ng/mL. Also, in data set [3] (one hour), the “percentage of the active agent dissolved at the end of one hour” value is recorded as at most 5%. For the same compound, in data set [3] (indomethacin alone, time not stated), the rate of dissolution result is given as “less than 5%”.

With `C[C@]12CCC(=O)C=C1CC[C@@H]1[C@@H]2[C@@H](O)C[C@@]2(C)[C@H]1CC[C@]2(O)C(=O)CO` [hydrocortisone], in data set [4], the “rate of dissolution in 45 minutes” value is listed as 10%.
